From patent US11066445B2, “Immunomodulators acting as antagonists of PD-1” (Bristol-Myers Squibb Company, priority 2017, dated 2021) come the findings set out here.

The target of the assay is T1, PD-1-Ig binding to PD-L1-TVMV-His (PD-L1-His) (Homo sapiens, UniProt Q9NZQ7).
T1 construct: hPDL1(19-239)-TVMV-His; TVMV protease cleavage site (C); made in house; host or cells: HEK293T cells
The assay can be described thus: PD-1/PD-L1 Homogenous Time-Resolved Fluorescence (HTRF) binding assay. Conditions: PD-1-Ig (20 nM) / PD-L1-His (10 nM), read-out: LE HTRF hPD1 hPDL1 IC50. The source says:
Methods for Testing the Ability of Macrocyclic Peptides to Compete for the Binding of Pd-1 to Pd-L1 Using Homogenous Time-Resolved Fluorescence (HTRF) Binding Assays
The ability of the macrocyclic peptides of the present disclosure to bind to PD-L1 was investigated using a PD-1/PD-L1 Homogenous Time-Resolved Fluorescence (HTRF) binding assay.
Homogenous Time-Resolved Fluorescence (HTRF) Assays of Binding of Soluble PD-1 to Soluble PD-L1. Soluble PD-1 and soluble PD-L1 refers to proteins with carboxyl-end truncations that remove the transmembrane-spanning regions and are fused to heterologous sequences, specifically the Fc portion of the human immunoglobuling G sequence (Ig) or the hexahistidine epitope tag (His). All binding studies were performed in an HTRF assay buffer consisting of dPBS supplemented with 0.1% (w/v) bovine serum albumin and 0.05% (v/v) Tween-20. For the PD-1-Ig/PD-L1-His binding assay, inhibitors were pre-incubated with PD-L1-His (10 nM final) for 15 m in 4 μl of assay buffer, followed by addition of PD-1-Ig (20 nM final) in 1 μl of assay buffer and further incubation for 15 m. PD-L1 fusion proteins from either human, cynomologous macaques, mouse, or other species were used. HTRF detection was achieved using europium crypate-labeled anti-Ig monoclonal antibody (1 nM final) and allophycocyanin (APC) labeled anti-His monoclonal antibody (20 nM final). Antibodies were diluted in HTRF detection buffer and 5 μl was dispensed on top of binding reaction. The reaction was allowed to equilibrate for 30 minutes and signal (665 nm/620 nm ratio) was obtained using an EnVision fluorometer. Additional binding assays were established between PD-1-Ig/PD-L2-His (20 and 5 nM, respectively), CD80-His/PD-L1-Ig (100 and 10 nM, respectively) and CD80-His/CTLA4-Ig (10 and 5 nM, respectively). Binding/competition studies between biotinylated Compound No. 71 and human PD-L1-His were performed as follows. Macrocyclic peptide inhibitors were pre-incubated with PD-L1-His (10 nM final) for 60 minutes in 4 μl of assay buffer followed by addition of biotinylated Compound No. 71 (0.5 nM final) in 1 μl of assay buffer. Binding was allowed to equilibrate for 30 minutes followed by addition of europium crypated labeled Streptavidin (2.5 pM final) and APC-labeled anti-His (20 nM final) in 5 μl of HTRF buffer. The reaction was allowed to equilibrate for 30 m and signal (665 nm/620 nm ratio) was obtained using an EnVision fluorometer.
Recombinant Proteins. Carboxyl-truncated human PD-1 (amino acids 25-167) with a C-terminal human Ig epitope tag [hPD-1 (25-167)-3S-IG] and human PD-L1 (amino acids 18-239) with a C-terminal His epitope tag [hPD-L1(19-239)-tobacco vein mottling virus protease cleavage site (TVMV)-His] were expressed in HEK293T cells and purified sequentially by recombinant Protein A affinity chromatography and size exclusion chromatography. Human PD-L2-His (Sino Biologicals), CD80-His (Sino Biologicals), CTLA4-Ig (RnD Systems) were all obtained through commercial sources.
Ranges are as follows: A=0.010-0.060 μM; B=0.0011-0.009 μM; C=0.0003-0.0010 μM.
(In general: TR-FRET usually uses a lanthanide donor and a delayed reading to cut background.)

Like-named read-outs stand apart in the source and are kept apart here. Starred links: 1 amine or outer side, 2 acyl side, 3 side chain; linkers in the order of their positions; H or OH if unused. Positions of bridges follow the written chain, without caps; N, C: chain ends. Non-standard residues stand in square brackets, D forms with d. Residues, ends and D or L forms follow the SMILES beside them. *: point of attachment. X3 = O=C(O)CCCCCCCCCCCCCCCCC(=O)N[C@@H](CCC(=O)NCCCOCCOCCOCCCN*)C(=O)O; Trp(1-CH2CONHSO2Me) = CS(=O)(=O)NC(=O)Cn1cc(C[C@H](N)C(=O)O)c2ccccc21; Trp(4-aza,1-CH2COOH) = N[C@@H](Cc1cn(CC(=O)O)c2cccnc12)C(=O)O; Trp(1-CH2CO2Me) = COC(=O)Cn1cc(C[C@H](N)C(=O)O)c2ccccc21; X4 = O=C(O)Cn1nc(C[C@H](N[*:1])C(=O)[*:2])c2ccccc21; d(cisHyp) = O=C(O)[C@H]1C[C@@H](O)CN1; Hyp = O=C(O)[C@@H]1C[C@@H](O)CN1; NMeNle = CCCC[C@H](NC)C(=O)O; NMeA = CN[C@@H](C)C(=O)O; Dab = NCC[C@H](N)C(=O)O; Dap = NC[C@H](N)C(=O)O; Sar = CNCC(=O)O

As usually defined, the IC50 is the concentration at which inhibition is half-maximal.

T1 sequence (Q9NZQ7 with tags, fused parts or gaps): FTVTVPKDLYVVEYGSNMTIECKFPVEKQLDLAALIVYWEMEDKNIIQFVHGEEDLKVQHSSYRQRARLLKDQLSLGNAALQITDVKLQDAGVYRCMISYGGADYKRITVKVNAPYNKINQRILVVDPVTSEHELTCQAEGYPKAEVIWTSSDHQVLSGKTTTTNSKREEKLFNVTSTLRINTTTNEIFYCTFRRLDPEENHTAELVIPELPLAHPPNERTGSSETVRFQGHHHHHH

On to `CCCC[C@H]1C(=O)N(C)[C@@H](CCCC)C(=O)N[C@@H](CC(C)C)C(=O)N[C@H](C(=O)NCC(=O)N[C@@H](CC(=O)NCCCOCCOCCOCCCNC(=O)CC[C@H](NC(=O)CCCCCCCCCCCCCCCCC(=O)O)C(=O)O)C(=O)O)CSCC(=O)N[C@@H](Cc2ccc(O)cc2)C(=O)N(C)[C@@H](C)C(=O)N[C@@H](CC(N)=O)C(=O)N2CCC[C@H]2C(=O)N[C@@H](CN)C(=O)N[C@@H](CC(C)C)C(=O)N2C[C@H](O)C[C@H]2C(=O)N[C@@H](Cc2c[nH]c3ccccc23)C(=O)N[C@@H](CCN)C(=O)N[C@@H](Cc2cn(CC(=O)NS(C)(=O)=O)c3ccccc23)C(=O)N1C` [Example 1] ({CH2CO}-Y[NMeA]NP[Dap]L[Hyp]W[Dab][Trp(1-CH2CONHSO2Me)][NMeNle][NMeNle]LCGD(X3)-OH; thioether N-14), for which the IC50 (numeric values) is 1.2 nM.
Turning to `CCCC[C@H]1C(=O)N(C)[C@@H](CCCC)C(=O)N[C@@H](CC(C)C)C(=O)N[C@H](C(=O)NCC(=O)N[C@@H](CC(=O)NCCCOCCOCCOCCCNC(=O)CC[C@H](NC(=O)CCCCCCCCCCCCCCCCC(=O)O)C(=O)O)C(=O)O)CSCC(=O)N[C@@H](Cc2ccc(O)cc2)C(=O)N(C)[C@@H](C)C(=O)N[C@@H](CC(N)=O)C(=O)N(C)CC(=O)N[C@@H](CN)C(=O)N[C@@H](CC(C)C)C(=O)N2C[C@H](O)C[C@H]2C(=O)N[C@@H](Cc2c[nH]c3ccccc23)C(=O)N[C@@H](CCN)C(=O)N[C@@H](Cc2cn(CC(=O)NS(C)(=O)=O)c3ccccc23)C(=O)N1C` [Example 2] ({CH2CO}-Y[NMeA]N[Sar][Dap]L[Hyp]W[Dab][Trp(1-CH2CONHSO2Me)][NMeNle][NMeNle]LCGD(X3)-OH; thioether N-14), the IC50 (range classes) was in the range of 1.1 to 9 nM.
Same read-out and setting: in the case of `CCCC[C@H]1C(=O)N(C)[C@@H](CCCC)C(=O)N[C@@H](CC(C)C)C(=O)N[C@H](C(=O)NCC(=O)NCCCOCCOCCOCCCNC(=O)CC[C@H](NC(=O)CCCCCCCCCCCCCCCCC(=O)O)C(=O)O)CSCC(=O)N[C@@H](Cc2ccc(O)cc2)C(=O)N(C)[C@@H](C)C(=O)N[C@@H](CC(N)=O)C(=O)N2CCC[C@H]2C(=O)N[C@@H](CN)C(=O)N[C@@H](CC(C)C)C(=O)N2C[C@H](O)C[C@H]2C(=O)N[C@@H](Cc2c[nH]c3ccccc23)C(=O)N[C@@H](CCN)C(=O)N[C@@H](Cc2cn(CC(=O)NS(C)(=O)=O)c3ccccc23)C(=O)N1C` [Example 3] ({CH2CO}-Y[NMeA]NP[Dap]L[Hyp]W[Dab][Trp(1-CH2CONHSO2Me)][NMeNle][NMeNle]LCG-X3; thioether N-14) it was 1.1 to 9 nM; in that of `CCCC[C@H]1C(=O)N(C)[C@@H](CCCC)C(=O)N[C@@H](CC(C)C)C(=O)N[C@H](C(=O)NCC(=O)NCCCOCCOCCOCCCNC(=O)CC[C@H](NC(=O)CCCCCCCCCCCCCCCCC(=O)O)C(=O)O)CSCC(=O)N[C@@H](Cc2ccc(O)cc2)C(=O)N(C)[C@@H](C)C(=O)N[C@@H](CC(N)=O)C(=O)N(C)CC(=O)N[C@@H](CN)C(=O)N[C@@H](CC(C)C)C(=O)N2C[C@H](O)C[C@H]2C(=O)N[C@@H](Cc2c[nH]c3ccccc23)C(=O)N[C@@H](CCN)C(=O)N[C@@H](Cc2cn(CC(=O)NS(C)(=O)=O)c3ccccc23)C(=O)N1C` [Example 4] ({CH2CO}-Y[NMeA]N[Sar][Dap]L[Hyp]W[Dab][Trp(1-CH2CONHSO2Me)][NMeNle][NMeNle]LCG-X3; thioether N-14), 1.1 to 9 nM; in that of `CCCC[C@H]1C(=O)N(C)[C@@H](CCCC)C(=O)N[C@@H](CC(C)C)C(=O)N[C@H](C(=O)NCC(=O)N[C@@H](CC(=O)NCCCOCCOCCOCCCNC(=O)CC[C@H](NC(=O)CCCCCCCCCCCCCCCCC(=O)O)C(=O)O)C(=O)O)CSCC(=O)N[C@@H](Cc2ccc(O)cc2)C(=O)N(C)[C@@H](C)C(=O)N[C@@H](CC(N)=O)C(=O)N2CCC[C@H]2C(=O)N[C@@H](CN)C(=O)N[C@@H](CC(C)C)C(=O)N2C[C@H](O)C[C@H]2C(=O)N[C@@H](Cc2c[nH]c3ccccc23)C(=O)N[C@@H](CCN)C(=O)N[C@@H](Cc2nn(CC(=O)O)c3ccccc23)C(=O)N1C` [Example 5] ({CH2CO}-Y[NMeA]NP[Dap]L[Hyp]W[Dab][X4][NMeNle][NMeNle]LCGD(X3)-OH; thioether N-14), 1.1 to 9 nM.
On the same count and under the same terms, the figure for `CCCC[C@H]1C(=O)N(C)[C@@H](CCCC)C(=O)N[C@@H](CC(C)C)C(=O)N[C@H](C(=O)NCC(=O)N[C@@H](CC(=O)NCCCOCCOCCOCCCNC(=O)CC[C@H](NC(=O)CCCCCCCCCCCCCCCCC(=O)O)C(=O)O)C(=O)O)CSCC(=O)N[C@@H](Cc2ccc(O)cc2)C(=O)N(C)[C@@H](C)C(=O)N[C@@H](CC(N)=O)C(=O)N(C)CC(=O)N[C@@H](CN)C(=O)N[C@@H](CC(C)C)C(=O)N2C[C@H](O)C[C@H]2C(=O)N[C@@H](Cc2c[nH]c3ccccc23)C(=O)N[C@@H](CCN)C(=O)N[C@@H](Cc2nn(CC(=O)O)c3ccccc23)C(=O)N1C` [Example 6] ({CH2CO}-Y[NMeA]N[Sar][Dap]L[Hyp]W[Dab][X4][NMeNle][NMeNle]LCGD(X3)-OH; thioether N-14) is 1.1 to 9 nM.
For the compound `CCCC[C@H]1C(=O)N(C)[C@@H](CCCC)C(=O)N[C@@H](CC(C)C)C(=O)N[C@H](C(=O)NCC(=O)N[C@@H](CC(=O)NCCCOCCOCCOCCCNC(=O)CC[C@H](NC(=O)CCCCCCCCCCCCCCCCC(=O)O)C(=O)O)C(=O)O)CSCC(=O)N[C@@H](Cc2ccc(O)cc2)C(=O)N(C)[C@@H](C)C(=O)N[C@@H](CC(N)=O)C(=O)N2CCC[C@H]2C(=O)N[C@@H](CN)C(=O)N[C@@H](CC(C)C)C(=O)N2C[C@H](O)C[C@H]2C(=O)N[C@@H](Cc2c[nH]c3ccccc23)C(=O)N[C@@H](CCN)C(=O)N[C@@H](Cc2cn(CC(=O)O)c3cccnc23)C(=O)N1C` [Example 7] ({CH2CO}-Y[NMeA]NP[Dap]L[Hyp]W[Dab][Trp(4-aza,1-CH2COOH)][NMeNle][NMeNle]LCGD(X3)-OH; thioether N-14), for the setting “range classes”, the IC50 fell in the range of 1.1 to 9 nM.
Same read-out and setting: the figure for `CCCC[C@H]1C(=O)N(C)[C@@H](CCCC)C(=O)N[C@@H](CC(C)C)C(=O)N[C@H](C(=O)NCC(=O)N[C@@H](CC(=O)NCCCOCCOCCOCCCNC(=O)CC[C@H](NC(=O)CCCCCCCCCCCCCCCCC(=O)O)C(=O)O)C(=O)O)CSCC(=O)N[C@@H](Cc2ccc(O)cc2)C(=O)N(C)[C@@H](C)C(=O)N[C@@H](CC(N)=O)C(=O)N(C)CC(=O)N[C@@H](CN)C(=O)N[C@@H](CC(C)C)C(=O)N2C[C@H](O)C[C@@H]2C(=O)N[C@@H](Cc2c[nH]c3ccccc23)C(=O)N[C@@H](CCN)C(=O)N[C@@H](Cc2cn(CC(=O)O)c3cccnc23)C(=O)N1C` [Example 8] ({CH2CO}-Y[NMeA]N[Sar][Dap]L[d(cisHyp)]W[Dab][Trp(4-aza,1-CH2COOH)][NMeNle][NMeNle]LCGD(X3)-OH; thioether N-14) is 1.1 to 9 nM.
Turning to `CCCC[C@H]1C(=O)N(C)[C@@H](CCCC)C(=O)N[C@@H](CC(C)C)C(=O)N[C@H](C(=O)NCC(=O)N[C@@H](CC(=O)NCCCOCCOCCOCCCNC(=O)CC[C@H](NC(=O)CCCCCCCCCCCCCCCCC(=O)O)C(=O)O)C(=O)O)CSCC(=O)N[C@@H](Cc2ccc(O)cc2)C(=O)N(C)[C@@H](C)C(=O)N[C@@H](CC(N)=O)C(=O)N2CCC[C@H]2C(=O)N[C@@H](CN)C(=O)N[C@@H](CC(C)C)C(=O)N2C[C@H](O)C[C@H]2C(=O)N[C@@H](Cc2c[nH]c3ccccc23)C(=O)N[C@@H](CCN)C(=O)N[C@@H](Cc2cn(CC(=O)OC)c3ccccc23)C(=O)N1C` [Example 9] ({CH2CO}-Y[NMeA]NP[Dap]L[Hyp]W[Dab][Trp(1-CH2CO2Me)][NMeNle][NMeNle]LCGD(X3)-OH; thioether N-14), the IC50 (range classes) was 0.3 to 1 nM.
